pKi: −log10 of the molar value.
target: PLK1 (Homo sapiens, UniProt P53350); experiment: PLK1 Inhibition Assay I (radioactive-phosphate incorporation); assay type: biochemical; details: Ki(app); PLK1 Inhibition Assay I or II (table does not say which)
Method in brief: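 Ki(app) values came from non-linear regression of initial rates after background subtraction, with phosphopeptide measured by phosphocellulose filter binding and scintillation counting. PLK1 at 2 nM was preincubated with compound (typically from 10 μM, 2-fold dilutions) for 10 min, then run 240 min at 25° C with 350 μM [γ-33P]ATP and 450 μM peptide substrate in HEPES pH 7.5 buffer.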

PLK1, sequence (P53350 whole entry): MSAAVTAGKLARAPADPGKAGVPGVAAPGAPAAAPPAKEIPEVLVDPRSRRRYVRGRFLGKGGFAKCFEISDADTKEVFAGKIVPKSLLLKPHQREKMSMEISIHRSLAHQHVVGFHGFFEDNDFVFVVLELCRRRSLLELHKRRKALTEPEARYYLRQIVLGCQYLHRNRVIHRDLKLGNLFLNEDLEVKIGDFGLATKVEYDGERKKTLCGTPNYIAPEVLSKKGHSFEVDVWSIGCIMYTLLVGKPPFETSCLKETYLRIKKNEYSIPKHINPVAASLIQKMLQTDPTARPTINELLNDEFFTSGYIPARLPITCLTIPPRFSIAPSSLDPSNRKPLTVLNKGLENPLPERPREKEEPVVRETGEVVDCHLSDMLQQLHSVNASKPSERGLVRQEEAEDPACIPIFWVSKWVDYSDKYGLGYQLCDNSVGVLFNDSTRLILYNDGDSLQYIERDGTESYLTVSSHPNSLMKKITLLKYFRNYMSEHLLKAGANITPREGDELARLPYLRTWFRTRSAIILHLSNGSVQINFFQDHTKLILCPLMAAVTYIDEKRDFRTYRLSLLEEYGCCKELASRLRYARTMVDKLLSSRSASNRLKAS

| pKi | Compound |
| --- | --- |
| 7.40 to 8.52 | C[C@@H](Nc1ncc(C#N)c(-c2c[nH]c3ncc(C(F)(F)F)cc23)n1)c1ccc(N2CCC(N(C)C)CC2)nc1 [Compound I-294, 2-((R)-1-(6-(4-(dimethylamino)piperidin-1-yl)pyridin-3-yl)ethylamino)-4-(5-(trifluoromethyl)-1H-pyrrolo[2,3-b]pyridin-3-yl)pyrimidine-5-carbonitrile] |
| > 8.52 | C[C@@H](Nc1ncc(C#N)c(-c2c[nH]c3ncc(C(F)(F)F)cc23)n1)c1ccc(N(C)C2CCN(C)C2)nc1 (stereo partly drawn) [Compound I-295, 2-((1R)-1-(6-(methyl(1-methylpyrrolidin-3-yl)amino)pyridin-3-yl)ethylamino)-4-(5-(trifluoromethyl)-1H-pyrrolo[2,3-b]pyridin-3-yl)pyrimidine-5-carbonitrile] |
| > 8.52 | CCN(CCN(C)C)c1ccc([C@@H](C)Nc2ncc(C#N)c(-c3c[nH]c4ncc(C(F)(F)F)cc34)n2)cn1 [Compound I-296, 2-((R)-1-(6-((2-(dimethylamino)ethyl)(ethyl)amino)pyridin-3-yl)ethylamino)-4-(5-(trifluoromethyl)-1H-pyrrolo[2,3-b]pyridin-3-yl)pyrimidine-5-carbonitrile] |
| > 8.52 | C[C@@H](Nc1ncc(C#N)c(-c2c[nH]c3ncc(C(F)(F)F)cc23)n1)c1ccc(NC2CCN(C)CC2)nc1 [Compound I-297, 2-((R)-1-(6-(1-methylpiperidin-4-ylamino)pyridin-3-yl)ethylamino)-4-(5-(trifluoromethyl)-1H-pyrrolo[2,3-b]pyridin-3-yl)pyrimidine-5-carbonitrile] |
| > 8.52 | C[C@@H](Nc1ncc(C#N)c(-c2c[nH]c3ncc(C(F)(F)F)cc23)n1)c1ccc(N2CCN3CCC[C@@H]3C2)nc1 [Compound I-298, 2-((R)-1-(6-((R)-hexahydropyrrolo[1,2-a]pyrazin-2(1H)-yl)pyridin-3-yl)ethylamino)-4-(5-(trifluoromethyl)-1H-pyrrolo[2,3-b]pyridin-3-yl)pyrimidine-5-carbonitrile] |
| > 8.52 | C[C@@H](Nc1ncc(C#N)c(-c2c[nH]c3ncc(C(F)(F)F)cc23)n1)c1cnc(N2CCN(C)CC2)nc1 [Compound I-299, 2-((R)-1-(2-(4-methylpiperazin-1-yl)pyrimidin-5-yl)ethylamino)-4-(5-(trifluoromethyl)-1H-pyrrolo[2,3-b]pyridin-3-yl)pyrimidine-5-carbonitrile] |
| > 8.52 | C[C@@H](Nc1ncc(C#N)c(-c2c[nH]c3ncc(C(F)(F)F)cc23)n1)c1ccc(O[C@@H]2CCN(C)C2)nc1 [Compound I-300, 2-(I-1-(6-(I-1-methylpyrrolidin-3-yloxy)pyridin-3-yl)ethylamino)-4-(5-(trifluoromethyl)-1H-pyrrolo[2,3-b]pyridin-3-yl)pyrimidine-5-carbonitrile] |
| < 7.40 | C[C@H](Nc1ncc(C#N)c(-c2c[nH]c3ncc(C(F)(F)F)cc23)n1)c1ccc(O[C@@H]2CCN(C)C2)nc1 [Compound I-301, 2-((S)-1-(6-(I-1-methylpyrrolidin-3-yloxy)pyridin-3-yl)ethylamino)-4-(5-(trifluoromethyl)-1H-pyrrolo[2,3-b]pyridin-3-yl)pyrimidine-5-carbonitrile] |
| > 8.52 | C[C@@H](Nc1ncc(C#N)c(-c2c[nH]c3ncc(C(F)(F)F)cc23)n1)c1cnc(O)nc1 [Compound I-302, 2-(I-1-(2-hydroxypyrimidin-5-yl)ethylamino)-4-(5-(trifluoromethyl)-1H-pyrrolo[2,3-b]pyridin-3-yl)pyrimidine-5-carbonitrile] |
| > 8.52 | COc1ncc([C@@H](C)Nc2ncc(C#N)c(-c3c[nH]c4ncc(C(F)(F)F)cc34)n2)cn1 [Compound I-303, 2-(I-1-(2-methoxypyrimidin-5-yl)ethylamino)-4-(5-(trifluoromethyl)-1H-pyrrolo[2,3-b]pyridin-3-yl)pyrimidine-5-carbonitrile] |
| < 7.40 | N#Cc1cnc(Oc2ccccc2)nc1-c1c[nH]c2ncc(C(F)(F)F)cc12 [EG4, 2-Phenoxy-4-(5-(trifluoromethyl)-1H-pyrrolo[2,3-b]pyridin-3-yl)pyrimidine-5-carbonitrile] |
| < 7.40 | CC(C)Oc1ncc(C#N)c(-c2c[nH]c3ncc(C(F)(F)F)cc23)n1 [EG5, 2-isopropoxy-4-(5-(trifluoromethyl)-1H-pyrrolo[2,3-b]pyridin-3-yl)pyrimidine-5-carbonitrile] |
| 7.40 to 8.52 | CC(C)Nc1ncc(C#N)c(-c2c[nH]c3ncc(Nc4ccccc4)cc23)n1 [EG6, 2-(isopropylamino)-4-(5-(phenylamino)-1H-pyrrolo[2,3-b]pyridin-3-yl)pyrimidine-5-carbonitrile] |
| 7.40 to 8.52 | CNC(=O)c1cccc(Nc2cnc3[nH]cc(-c4nc(NC(C)C)ncc4C#N)c3c2)c1 [EG7, 3-(3-(5-cyano-2-(isopropylamino)pyrimidin-4-yl)-1H-pyrrolo[2,3-b]pyridin-5-ylamino)-N-methylbenzamide] |
| 7.40 to 8.52 | Cc1cnc2[nH]cc(-c3nc(N[C@@H](CO)C(C)C)ncc3C#N)c2c1 [EG8, 2-((R)-1-hydroxy-3-methylbutan-2-ylamino)-4-(5-methyl-1H-pyrrolo[2,3-b]pyridin-3-yl)pyrimidine-5-carbonitrile] |
| 7.40 to 8.52 | CC(C)(Nc1ncc(C#N)c(-c2c[nH]c3ncc(C(F)(F)F)cc23)n1)C(=O)NCC(F)(F)F [IA-0, 2-(5-cyano-4-(5-(trifluoromethyl)-1H-pyrrolo[2,3-b]pyridin-3-yl)pyrimidin-2-ylamino)-2-methyl-N-(2,2,2-trifluoroethyl)propanamide] |

| pKi | Compound |
| --- | --- |
| < 7.40 | CC(C)(Nc1ncc(C#N)c(-c2c[nH]c3ncc(C(F)(F)F)cc23)n1)C(=O)NCCC(F)(F)F [IA-1, 2-(5-cyano-4-(5-(trifluoromethyl)-1H-pyrrolo[2,3-b]pyridin-3-yl)pyrimidin-2-ylamino)-2-methyl-N-(3,3,3-trifluoropropyl)propanamide] |
| 7.40 to 8.52 | N#Cc1cnc(NC2(C(=O)NCC(F)(F)F)CCCCC2)nc1-c1c[nH]c2ncc(Cl)cc12 [IA-3, 1-(4-(5-chloro-1H-pyrrolo[2,3-b]pyridin-3-yl)-5-cyanopyrimidin-2-ylamino)-N-(2,2,2-trifluoroethyl)cyclohexanecarboxamide] |
| 7.40 to 8.52 | CC(C)(Nc1ncc(C#N)c(-c2c[nH]c3ncc(Cl)cc23)n1)C(=O)NC1CCCC1 [IA-4, 2-(4-(5-chloro-1H-pyrrolo[2,3-b]pyridin-3-yl)-5-cyanopyrimidin-2-ylamino)-N-cyclopentyl-2-methylpropanamide] |
| 7.40 to 8.52 | CC(C)(Nc1ncc(C#N)c(-c2c[nH]c3ncc(Cl)cc23)n1)C(=O)NC1CCCCC1 [IA-5, 2-(4-(5-chloro-1H-pyrrolo[2,3-b]pyridin-3-yl)-5-cyanopyrimidin-2-ylamino)-N-cyclohexyl-2-methylpropanamide] |
| < 7.40 | C[C@H](Nc1ncc(C#N)c(-c2c[nH]c3ncc(Cl)cc23)n1)C(=O)NCC(F)(F)F [IA-6, (2S)-2-(4-(5-chloro-1H-pyrrolo{2,3-b]pyridin-3-yl)-5-cyanopyrimidin-2-ylamino)-N-(2,2,2-trifluoroethyl)propanamide] |
| < 7.40 | N#Cc1cnc(NC2(C(=O)NCC(F)(F)F)CCCC2)nc1-c1c[nH]c2ncc(Cl)cc12 [IA-7, 1-(4-(5-chloro-1H-pyrrolo[2,3-b]pyridin-3-yl)-5-cyanopyrimidin-2-ylamino)-N-(2,2,2-trifluoroethyl)cyclopentanecarboxamide] |
| < 7.40 | CNC(=O)C(C)(C)Nc1ncc(C#N)c(-c2c[nH]c3ncc(Cl)cc23)n1 [IA-8, 2-(4-(5-chloro-1H-pyrrolo[2,3-b]pyridin-3-yl)-5-cyanopyrimidin-2-ylamino)-N,2-dimethylpropanamide] |
| < 7.40 | CC(C)(Nc1ncc(C#N)c(-c2c[nH]c3ncc(C(F)(F)F)cc23)n1)C(=O)O [IA-9, 2-(5-cyano-4-(5-(trifluoromethyl)-1H-pyrrolo[2,3-b]pyridin-3-yl)pyrimidin-2-ylamino)-2-methylpropanoic acid] |
| < 7.40 | CC(C)(Nc1ncc(C#N)c(-c2c[nH]c3ncccc23)n1)C(=O)NCC(F)(F)F [IA-10, 2-(5-cyano-4-(1H-pyrrolo[2,3-b]pyridin-3-yl)pyrimidin-2-ylamino)-2-methyl-N-(2,2,2-trifluoroethyl)propanamide] |
| 7.40 to 8.52 | CC(C)(Nc1ncc(C#N)c(-c2c[nH]c3ncc(Cl)cc23)n1)C(=O)NCC(F)(F)F [IA-11, 2-(4-(5-chloro-1H-pyrrolo[2,3-b]pyridin-3-yl)-5-cyanopyrimidin-2-ylamino)-2-methyl-N-(2,2,2-trifluoroethyl)propanamide] |
| 7.40 to 8.52 | C[C@@H](Nc1ncc(C#N)c(-c2c[nH]c3ncc(C(F)(F)F)cc23)n1)C(=O)NCCO [IA-12, (2R)-2-(5-cyano-4-(5-(trifluoromethyl)-1H-pyrrolo[2,3-b]pyridin-3-yl)pyrimidin-2-ylamino)-N-(2-hydroxyethyl)-propanamide] |
| 7.40 to 8.52 | C[C@@H](Nc1ncc(C#N)c(-c2c[nH]c3ncc(C(F)(F)F)cc23)n1)C(=O)NC1CCCC1O (stereo partly drawn) [IA-13, (2R)-2-(5-cyano-4-(5-(trifluoromethyl)-1H-pyrrolo[2,3-b]pyridin-3-yl)pyrimidin-2-ylamino)-N-(2-hydroxycyclopentyl)propanamide] |
| < 7.40 | CC(C)(Nc1ncc(C#N)c(-c2c[nH]c3ncc(C(F)(F)F)cc23)n1)C(=O)NCCO [IA-14, 2-(5-cyano-4-(5-(trifluoromethyl)-1H-pyrrolo[2,3-b]pyridin-3-yl)pyrimidin-2-ylamino)-N-(2-hydroxyethyl)-2-methylpropanamide] |
| 7.40 to 8.52 | N#Cc1cnc(Sc2ccccc2)nc1-c1c[nH]c2ncc(C(F)(F)F)cc12 [II-0, 2-(phenylthio)-4-(5-(trifluoromethyl)-1H-pyrrolo[2,3-b]pyridin-3-yl)pyrimidine-5-carbonitrile] |
| < 7.40 | CSc1ncc(C#N)c(-c2c[nH]c3ncc(C(F)(F)F)cc23)n1 [II-1, 2-(methylthio)-4-(5-(trifluoromethyl)-1H-pyrrolo[2,3-b]pyridin-3-yl)pyrimidine-5-carbonitrile] |

Reference: patent US8530489B2 (Vertex Pharmaceuticals Incorporated, priority 2006, dated 2013)
